PubChem BioAssay (NCI)
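1) Cells in 96-well plates. 2) Compound, 48 h, 5 concentrations. 3) Linear interpolation between surrounding doses. 4) Unreached endpoint = highest concentration. GI50: concentration for 50% inhibition of growth. TGI: concentration producing complete growth inhibition.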

Key:
Assay in all cases: NCI tumour cell line growth inhibition, 48 h
786-0 renal = tested on: 786-0 renal
A498 renal = tested on: A498 renal
A549 NSCLC = tested on: A549 NSCLC
ACHN renal = tested on: ACHN renal
BT-549 breast = tested on: BT-549 breast
CAKI-1 renal = tested on: CAKI-1 renal
CCRF-CEM leukemia = tested on: CCRF-CEM leukemia
COLO 205 colon = tested on: COLO 205 colon
DU-145 prostate = tested on: DU-145 prostate
EKVX NSCLC = tested on: EKVX NSCLC
HCC-2998 colon = tested on: HCC-2998 colon
HCT-116 colon = tested on: HCT-116 colon
HCT-15 colon = tested on: HCT-15 colon
HL-60(TB) leukemia = tested on: HL-60(TB) leukemia
HOP-62 NSCLC = tested on: HOP-62 NSCLC
HOP-92 NSCLC = tested on: HOP-92 NSCLC
HS 578T breast = tested on: HS 578T breast
HT29 colon = tested on: HT29 colon
IGROV1 ovarian = tested on: IGROV1 ovarian
K-562 leukemia = tested on: K-562 leukemia
KM12 colon = tested on: KM12 colon
LOX IMVI melanoma = tested on: LOX IMVI melanoma
M14 melanoma = tested on: M14 melanoma
MALME-3M melanoma = tested on: MALME-3M melanoma
MCF7 breast = tested on: MCF7 breast
MDA-MB-231 breast = tested on: MDA-MB-231 breast
MDA-MB-435 = tested on: MDA-MB-435
MOLT-4 leukemia = tested on: MOLT-4 leukemia
NCI-H226 lung = tested on: NCI-H226 lung
NCI-H23 lung = tested on: NCI-H23 lung
NCI-H460 lung = tested on: NCI-H460 lung
NCI-H522 lung = tested on: NCI-H522 lung
NCI/ADR-RES ovarian = tested on: NCI/ADR-RES ovarian
OVCAR-3 ovarian = tested on: OVCAR-3 ovarian
OVCAR-4 ovarian = tested on: OVCAR-4 ovarian
OVCAR-5 ovarian = tested on: OVCAR-5 ovarian
OVCAR-8 ovarian = tested on: OVCAR-8 ovarian
PC-3 prostate = tested on: PC-3 prostate
RPMI-8226 leukemia = tested on: RPMI-8226 leukemia
RXF 393 renal = tested on: RXF 393 renal
SF-268 CNS = tested on: SF-268 CNS
SF-295 CNS = tested on: SF-295 CNS
SF-539 CNS = tested on: SF-539 CNS
SK-MEL-2 melanoma = tested on: SK-MEL-2 melanoma
SK-MEL-28 melanoma = tested on: SK-MEL-28 melanoma
SK-MEL-5 melanoma = tested on: SK-MEL-5 melanoma
SK-OV-3 ovarian = tested on: SK-OV-3 ovarian
SN12C renal = tested on: SN12C renal
SNB-19 CNS = tested on: SNB-19 CNS
SNB-75 CNS = tested on: SNB-75 CNS
SR leukemia = tested on: SR leukemia
SW-620 colon = tested on: SW-620 colon
T-47D breast = tested on: T-47D breast
TK-10 renal = tested on: TK-10 renal
U251 CNS = tested on: U251 CNS
UACC-257 melanoma = tested on: UACC-257 melanoma
UACC-62 melanoma = tested on: UACC-62 melanoma
UO-31 renal = tested on: UO-31 renal
MDA-N = tested on: MDA-N

## COC(=O)c1ccc2c(c1)nc(-c1ccc(Cl)cc1)n2-c1cc(C(C)(C)C)[nH]n1
786-0 renal
  GI50: 3.62 µM
  TGI: 32 µM
A498 renal
  GI50: 2.26 µM
  TGI: 9.76 µM
A549 NSCLC
  GI50: 4.03 µM
  TGI: 94.5 µM
ACHN renal
  GI50: 3 µM
  TGI: 9.34 µM
BT-549 breast
  GI50: 3.35 µM
  TGI: 11.5 µM
CAKI-1 renal
  GI50: 2.25 µM
  TGI: 12.8 µM
CCRF-CEM leukemia
  GI50: 4.91 µM
  TGI: > 100 µM
COLO 205 colon
  GI50: 2.29 µM
  TGI: 6.04 µM
DU-145 prostate
  GI50: 3.69 µM
  TGI: 25.1 µM
EKVX NSCLC
  GI50: 3.06 µM
  TGI: > 100 µM
HCC-2998 colon
  GI50: 3.9 µM
  TGI: 19.8 µM
HCT-116 colon
  GI50: 3.46 µM
  TGI: 12.3 µM
HCT-15 colon
  GI50: 4.36 µM
  TGI: > 100 µM
HL-60(TB) leukemia
  GI50: 4.03 µM
  TGI: 19 µM
HOP-62 NSCLC
  GI50: 3.41 µM
  TGI: 21 µM
HOP-92 NSCLC
  GI50: 1.15 µM
  TGI: 8.02 µM
HS 578T breast
  GI50: 1.72 µM
  TGI: 7.16 µM
HT29 colon
  GI50: 3.65 µM
  TGI: 15.4 µM
IGROV1 ovarian
  GI50: 3.64 µM
  TGI: 25 µM
K-562 leukemia
  GI50: 4.2 µM
  TGI: > 100 µM
KM12 colon
  GI50: 2.12 µM
  TGI: 6.07 µM
LOX IMVI melanoma
  GI50: 3.7 µM
  TGI: 14.5 µM
M14 melanoma
  GI50: 2.9 µM
  TGI: 8.22 µM
MALME-3M melanoma
  GI50: 3.25 µM
  TGI: 15.6 µM
MCF7 breast
  GI50: 2.79 µM
  TGI: 12.3 µM
MDA-MB-231 breast
  GI50: 4.62 µM
  TGI: 27 µM
MDA-MB-435
  GI50: 1.19 µM
  TGI: 5 µM
MOLT-4 leukemia
  GI50: 5.48 µM
  TGI: > 100 µM
NCI-H226 lung
  GI50: 4.09 µM
  TGI: 44 µM
NCI-H23 lung
  GI50: 3.42 µM
  TGI: 36 µM
NCI-H460 lung
  GI50: 2.95 µM
  TGI: 8.81 µM
NCI-H522 lung
  GI50: 3.21 µM
  TGI: 20.3 µM
NCI/ADR-RES ovarian
  GI50: 2.72 µM
  TGI: 7.35 µM
OVCAR-3 ovarian
  GI50: 2.35 µM
  TGI: 6.13 µM
OVCAR-4 ovarian
  GI50: 3.4 µM
  TGI: > 100 µM
OVCAR-5 ovarian
  GI50: 12.9 µM
  TGI: 60.1 µM
OVCAR-8 ovarian
  GI50: 7.33 µM
  TGI: 58.2 µM
PC-3 prostate
  GI50: 2.93 µM
  TGI: 15.7 µM
RPMI-8226 leukemia
  GI50: 3.93 µM
  TGI: 11.2 µM
RXF 393 renal
  GI50: 1.57 µM
  TGI: 5.77 µM
SF-268 CNS
  GI50: 3.29 µM
  TGI: 17.8 µM
SF-295 CNS
  GI50: 2.48 µM
  TGI: 8.98 µM
SF-539 CNS
  GI50: 2.54 µM
  TGI: 8.95 µM
SK-MEL-2 melanoma
  GI50: 3.89 µM
  TGI: 18.1 µM
SK-MEL-28 melanoma
  GI50: 3.38 µM
  TGI: 15.5 µM
SK-MEL-5 melanoma
  GI50: 2.02 µM
  TGI: 5.1 µM
SK-OV-3 ovarian
  GI50: 3.71 µM
  TGI: 31 µM
SN12C renal
  GI50: 4.34 µM
  TGI: 27.7 µM
SNB-19 CNS
  GI50: 4.31 µM
  TGI: > 100 µM
SNB-75 CNS
  GI50: 2.14 µM
  TGI: 12.6 µM
SR leukemia
  GI50: 3.23 µM
  TGI: > 100 µM
SW-620 colon
  GI50: 3.24 µM
  TGI: > 100 µM
T-47D breast
  GI50: 3.64 µM
  TGI: > 100 µM
TK-10 renal
  GI50: 6.94 µM
  TGI: > 100 µM
U251 CNS
  GI50: 4.13 µM
  TGI: 22.7 µM
UACC-257 melanoma
  GI50: 4.97 µM
  TGI: 22.9 µM
UACC-62 melanoma
  GI50: 2.01 µM
  TGI: 7.78 µM
UO-31 renal
  GI50: 3.35 µM
  TGI: 44.1 µM

## CCCCCOP(=O)(OCCCCC)C(NC(C)=O)(C(=O)OCC)C(F)(F)F (stereo not given)
A498 renal
  TGI: > 100 µM
ACHN renal
  TGI: > 100 µM
CCRF-CEM leukemia
  TGI: > 100 µM
DU-145 prostate
  TGI: > 100 µM
EKVX NSCLC
  TGI: > 100 µM
HCC-2998 colon
  TGI: > 100 µM
HCT-116 colon
  TGI: > 100 µM
HCT-15 colon
  TGI: > 100 µM
HL-60(TB) leukemia
  TGI: > 100 µM
HOP-62 NSCLC
  TGI: > 100 µM
HT29 colon
  TGI: > 100 µM
K-562 leukemia
  TGI: > 100 µM
M14 melanoma
  TGI: > 100 µM
MALME-3M melanoma
  TGI: > 100 µM
MCF7 breast
  TGI: > 100 µM
MDA-MB-231 breast
  TGI: > 100 µM
MDA-MB-435
  TGI: > 100 µM
MDA-N
  TGI: > 100 µM
MOLT-4 leukemia
  TGI: > 100 µM
NCI-H522 lung
  TGI: > 100 µM
RPMI-8226 leukemia
  TGI: > 100 µM
SF-268 CNS
  TGI: > 100 µM
SF-539 CNS
  TGI: > 100 µM
SK-MEL-28 melanoma
  TGI: > 100 µM
SK-OV-3 ovarian
  TGI: > 100 µM
SN12C renal
  TGI: > 100 µM
SNB-75 CNS
  TGI: > 100 µM
SR leukemia
  TGI: > 100 µM
T-47D breast
  TGI: > 100 µM
U251 CNS
  TGI: > 100 µM
UACC-62 melanoma
  TGI: > 100 µM
UO-31 renal
  TGI: > 100 µM

## CCCCc1cc2c(cc1O)CCC1C2CC[C@@]2(C)C1CC[C@@H]2O (stereo not given in full)
786-0 renal
  TGI: 73.1 µM
A498 renal
  TGI: 57.2 µM
A549 NSCLC
  TGI: 29.3 µM
ACHN renal
  TGI: 29.7 µM
CAKI-1 renal
  TGI: 52.6 µM
CCRF-CEM leukemia
  TGI: 56.7 µM
COLO 205 colon
  TGI: 49.5 µM
DU-145 prostate
  TGI: 35.3 µM
EKVX NSCLC
  TGI: 33.6 µM
HCC-2998 colon
  TGI: 50.9 µM
HCT-116 colon
  TGI: 36.6 µM
HCT-15 colon
  TGI: > 100 µM
HOP-62 NSCLC
  TGI: 57.3 µM
HOP-92 NSCLC
  TGI: 39.3 µM
HS 578T breast
  TGI: 43.8 µM
HT29 colon
  TGI: 50.3 µM
IGROV1 ovarian
  TGI: 49.9 µM
K-562 leukemia
  TGI: 43.6 µM
KM12 colon
  TGI: 32.4 µM
LOX IMVI melanoma
  TGI: 39.3 µM
M14 melanoma
  TGI: 41.7 µM
MALME-3M melanoma
  TGI: 39.2 µM
MCF7 breast
  TGI: 30.4 µM
MDA-MB-231 breast
  TGI: 62.1 µM
MDA-MB-435
  TGI: 36.5 µM
MDA-N
  TGI: 51.2 µM
MOLT-4 leukemia
  TGI: 28.2 µM
NCI-H226 lung
  TGI: 40.6 µM
NCI-H23 lung
  TGI: 41.3 µM
NCI-H460 lung
  TGI: 63.5 µM
NCI-H522 lung
  TGI: 43.7 µM
NCI/ADR-RES ovarian
  TGI: 38.5 µM
OVCAR-3 ovarian
  TGI: 29.7 µM
OVCAR-4 ovarian
  TGI: 37.3 µM
OVCAR-5 ovarian
  TGI: 36.5 µM
OVCAR-8 ovarian
  TGI: 43.4 µM
PC-3 prostate
  TGI: 35.3 µM
RPMI-8226 leukemia
  TGI: 39.1 µM
RXF 393 renal
  TGI: 22.2 µM
SF-268 CNS
  TGI: 89 µM
SF-295 CNS
  TGI: 35.8 µM
SF-539 CNS
  TGI: 59.3 µM
SK-MEL-2 melanoma
  TGI: 38.1 µM
SK-MEL-28 melanoma
  TGI: 45.1 µM
SK-MEL-5 melanoma
  TGI: 39.2 µM
SK-OV-3 ovarian
  TGI: 37.1 µM
SN12C renal
  TGI: 39.3 µM
SNB-19 CNS
  TGI: > 100 µM
SNB-75 CNS
  TGI: 31.7 µM
SR leukemia
  TGI: 51.3 µM
SW-620 colon
  TGI: 59.2 µM
T-47D breast
  TGI: 35.8 µM
TK-10 renal
  TGI: 33.7 µM
U251 CNS
  TGI: 64.7 µM
UACC-257 melanoma
  TGI: 35.9 µM
UACC-62 melanoma
  TGI: 29.5 µM
UO-31 renal
  TGI: 38 µM
